In patent US9233951B2, “Heterocyclic compounds as pesticides” (Bayer Intellectual Property GmbH, priority 2010, dated 2016):
Read-outs that look alike come from different tables or passages of the source.

Legend:
[1] = physchem; format: physicochemical
Procedure: 1 Method Description for Determination of the logP values and Mass Detection
Eluents for determination in the acidic range (pH 3.4): • Eluent A: acetonitrile+1 ml formic acid/l.
The λmax values were determined in the maxima of the chromatographic signals using the UV spectra from 200 nm to 400 nm. The mass was detected (M^+, m/z) by means of an Agilent MSD mass spectrometer.

[2] = test system: green peach aphid (Myzus persicae); assay: Myzus persicae test (spray treatment); format: in vivo; details: foliar, 144 h, read-out: efficacy in %
Procedure: Myzus persicae Test (Spray Treatment)
• Solvent: 78 parts by weight of acetone • 1.5 parts by weight of dimethylformamide • Emulsifier: 0.5 part by weight of alkylaryl polyglycol ether
To prepare an appropriate active ingredient preparation, 1 part by weight of active ingredient is mixed with the stated amounts of solvent and emulsifier, and the concentrate is diluted with emulsifier-containing water to the desired concentration. Discs of Chinese cabbage (Brassica pekinensis) infested by all stages of the green peach aphid (Myzus persicae) are sprayed with an active ingredient preparation of the desired concentration.
After 6 days, the efficacy in % is determined. 100% means that all of the aphids have been killed; 0% means that none of the aphids have been killed.

[3] = reverse-phase HPLC column (C 18), pH 3.4, HPLC, reverse-phase C 18, acidic range pH 3.4, 55° C., table of compounds, read-out: logP (HCO2H)
[4] = application rate 500 g/ha, Chinese cabbage leaf discs sprayed, after 6 days, 100% = all aphids killed
[5] = reverse-phase HPLC column (C 18), pH 3.4, HPLC-MS value printed in the preparation example text, acidic range pH 3.4, read-out: logP (HCOOH)

SMILES	chromatographic logP [1, 3]	chromatographic logP [1, 5]	further results
O=C(NCC(F)(F)Br)c1ccc(-c2cccnc2)o1 [Compound 26]	1.49	–	–
CCOC(=O)c1cc(-c2ccc(Cl)nc2)ns1 [Ethyl 3-(6-chloropyridin-3-yl)-1,2-thiazole-5-carboxylate]	–	3.33	–
O=C(NCC(F)(F)F)C1CN=C(c2cccnc2)S1 (centres unmarked) [Compound 42]	–	–	chromatographic logP ([1]; pH 3.4, logP (HCO2H)): 0.54
O=C(NCc1ncccn1)C1CN=C(c2cncnc2)S1 (racemic) [Compound 44, (R,S)-4,5-Dihydro-N-(pyrimidin-2-ylmethyl)-2-(5-pyrimidinyl)-1,3-thiazole-5-carboxamide]	0.9	0.9	pest or weed control at 500 g/ha [2, 4]: 80%
O=C(O)C1CN=C(c2cncnc2)S1 (racemic) [(R,S)-4,5-Dihydro-2-(5-pyrimidinyl)-1,3-thiazole-5-carboxylic acid]	–	0.3	–
CCOC(=O)c1cn(-c2cccnc2)nn1 [Ethyl 1-(pyridin-3-yl)-1H-1,2,3-triazole-4-carboxylate]	–	1.15	–
CN(CC#N)C(=O)c1ccc(-c2cccnc2)o1 [Compound 16]	0.72	–	pest or weed control at 500 g/ha [2, 4]: 90%
CN(C)C(=O)C1CN=C(c2cncnc2)S1 (centres unmarked) [Compound 46]	0.99	–	–
CC(F)(F)CNC(=O)c1cc(-c2ccc(Cl)nc2)ns1 [3-(6-Chloropyridin-3-yl)-N-(2,2-difluoropropyl)-1,2-thiazole-5-carboxamide]	–	2.45	–
CCOC(=O)c1ncn(-c2cccnc2)c1C [Ethyl 5-methyl-1-(pyridin-3-yl)-1H-imidazole-4-carboxylate]	–	1.03	–
O=C(O)c1cc(-c2ccc(Cl)nc2)ns1 [3-(6-Chloropyridin-3-yl)-1,2-thiazole-5-carboxylic acid]	–	1.56	–
O=C(NCC(F)(F)F)C1CN=C(c2cncnc2)S1 (centres unmarked) [Compound 45]	1.4	–	pest or weed control at 500 g/ha [2, 4]: 100%
O=C(NCC1CCCCC1)c1ccc(-c2cccnc2)o1 [Compound 15]	2.02	–	–
O=C(NCC(F)(F)F)c1ccn(-c2cccnc2)c1 [Compound 36, 1-(Pyridin-3-yl)-N-(2,2,2-trifluoroethyl)pyrrole-3-carboxamide]	1.24	1.24	pest or weed control at 500 g/ha ([2]; in Brassica rapa): 90%
CC(NC(=O)c1ccc(-c2cccnc2)o1)C1CC1 (centres unmarked) [Compound 8]	1.36	–	pest or weed control at 500 g/ha [2, 4]: 80%
O=C(c1ccc(-c2cccnc2)o1)N1CCCC1 [Compound 10]	1.06	–	–
O=C(O)C1CN=C(c2cccnc2)S1 (racemic) [(R,S)-4,5-Dihydro-2-(3-pyridinyl)-1,3-thiazole-5-carboxylic acid]	–	–	chromatographic logP ([1]; pH 3.4, HPLC-MS value printed in the preparation example text, acidic range pH 3.4, read-out: logP (HCOOH)): 0.75
CN(C)C(=O)C1CN=C(c2cccnc2)S1 (racemic) [Compound 41, (R,S)-4,5-Dihydro-N,N-dimethyl-2-(3-pyridinyl)-1,3-thiazole-5-carboxamide]	–	–	pest or weed control at 500 g/ha [2, 4]: 100%
O=C(O)c1cn(-c2cccnc2)nn1 [1-(Pyridin-3-yl)-1H-1,2,3-triazole-4-carboxylic acid]	–	-0.03	–
NC(=O)c1csc(-c2cccnc2)n1 [Compound 28]	–	–	pest or weed control at 500 g/ha [2, 4]: 100%
COC(=O)c1ccn(-c2cccnc2)c1 [Methyl 1-(pyridin-3-yl)pyrrole-3-carboxylate]	–	1.26	–

Second part, led by results:

chromatographic logP [1, 3]	chromatographic logP [1, 5]	SMILES	further results
0.72	–	C#CCNC(=O)c1ccc(-c2cccnc2)o1 [Compound 22]	pest or weed control at 500 g/ha [2, 4]: 100%
1.62	1.62	Cc1cc(-c2cccnc2)sc1C(=O)NCC(F)(F)F [Compound 5, 3-Methyl-5-(pyridin-3-yl)-N-(2,2,2-trifluoroethyl)thiophene-2-carboxamide]	–
0.65	0.65	O=C(NCC(F)(F)F)n1cnc(-c2cccnc2)c1 [Compound 1, 4-(Pyridin-3-yl)-N-(2,2,2-trifluoroethyl)-1H-imidazole-1-carboxamide]	pest or weed control at 500 g/ha [2, 4]: 100%
–	1.21	CCOC(=O)c1nnc(-c2cccnc2)o1 [Ethyl 5-(pyridin-3-yl)-1,3,4-oxadiazole-2-carboxylate]	–
1.74	1.74	Cc1nc(C(=O)NCC(F)(F)F)sc1-c1cccnc1 [Compound 47, 4-Methyl-5-(3-pyridyl)-N-(2,2,2-trifluoroethyl)-1,3-thiazole-2-carboxamide]	–
1.21	1.21	O=C(NCC(F)(F)F)c1nnc(-c2cccnc2)o1 [Compound 49, 5-(Pyridin-3-yl)-N-(2,2,2-trifluoroethyl)-1,3,4-oxadiazole-2-carboxamide]	–
–	1.96	Cc1cc(-c2cccnc2)sc1C(=O)O [3-Methyl-5-(pyridin-3-yl)thiophene-2-carboxylic acid]	–
–	-0.06	O=C(O)c1cnc(-c2cccnc2)o1 [2-(Pyridin-3-yl)-1,3-oxazole-5-carboxylic acid]	–
1.58	–	CCN(CC)C(=O)c1oc(-c2cccnc2)cc1C [Compound 24]	pest or weed control at 500 g/ha [2, 4]: 90%
–	0.35	O=C(O)c1csc(-c2cccnc2)n1 [2-(Pyridin-3-yl)-1,3-thiazole-4-carboxylic acid]	–
1	–	CCN(C)C(=O)c1ccc(-c2cccnc2)o1 [Compound 11]	pest or weed control at 500 g/ha [2, 4]: 100%
1.33	–	O=C(NCC(F)(F)F)c1cc(-c2cccnc2)no1 [Compound 40]	–
1.51	1.51	O=C(NCC(F)(F)F)c1cc(-c2cccnc2)on1 [Compound 39, 5-(Pyridin-3-yl)-N-(2,2,2-trifluoroethyl)-1,2-oxazole-3-carboxamide]	–
1.43	1.43	CN(C)C(=O)c1cnc(-c2cccnc2)o1 [Compound 25, N,N-Dimethyl-2-(pyridin-3-yl)-1,3-oxazole-5-carboxamide]	pest or weed control at 500 g/ha [2, 4]: 90%
–	0.45	CCOC(=O)c1nc(C)c(-c2cccnc2)s1 [Ethyl 4-methyl-5-(3-pyridinyl)-1,3-thiazole-2-carboxylate]	–
1.39	–	CSC[C@H](C)NC(=O)c1nnc(-c2cccnc2)o1 [Compound 35]	pest or weed control at 500 g/ha [2, 4]: 80%
1.28	1.28	Cc1c(C(=O)NCC(F)(F)F)ncn1-c1cccnc1 [Compound 50, 5-Methyl-1-(pyridin-3-yl)-N-(2,2,2-trifluoroethyl)-1H-imidazole-4-carboxamide]	–
–	0.07	O=C(O)c1coc(-c2cccnc2)c1 [5-(Pyridin-3-yl)furan-3-carboxylic acid]	–
1.46	1.46	Cc1nc(-c2cccnc2)oc1C(=O)NCC(F)(F)F [Compound 4, 4-Methyl-2-(pyridin-3-yl)-N-(2,2,2-trifluoroethyl)-1,3-oxazole-5-carboxamide]	–
–	0.95	O=C(NCC(F)(F)F)n1cc(-c2cccnc2)cn1 [Compound 48]	–
–	0.56	Cc1nc(-c2cccnc2)oc1C(=O)O [4-Methyl-2-(pyridin-3-yl)-1,3-oxazole-5-carboxylic acid]	–
1.13	1.13	CSCCNC(=O)c1nnc(-c2cccnc2)o1 [Compound 34, N-(2-Methylmercaptoethyl)-5-(pyridin-3-yl)-1,3,4-oxazole-2-carboxamide]	–
